From US20250339443A1, “METHOD FOR TREATING OR PREVENTING CALCIUM RELEASE-ACTIVATED CALCIUM CHANNEL OR DISCOIDIN DOMAIN RECEPTOR 2 RELATED DISORDERS OR CONDITIONS” (LumiSTAR Biotechnology, Inc., priority 2023, published 2025) come the findings set out here.

The target of one test is CRAC channel (Homo sapiens, UniProt Q96D31). The test can be described thus: CRAC channel activity / SOCE in HCF. The settings on record: 10 μM pretreatment 45 min. It counts as cell-based. Also noted: endogenous in cells. As for the experimental part: Cells were co-treated with various compounds (10 μM) and TGF-β1 for 24 hours. Following this, cell lysates were harvested, and the protein expression was assessed by Western blot analysis. FIG. 3D depicts the examination of TGF-β1-induced fibronectin deposition and α-SMA expression in HCF treated with 10 μM of DMSO, BTP2, WRG-28, or Av through immunofluorescence staining. The images were captured using a confocal microscope, the Olympus FV-1000. FIG. 3E, FIG. 3F, and FIG. 3G illustrate the assessment of CRAC channel activity in HCF, MRC5, and rat HSC-T6. These cells were pretreated with 10 μM of BTP2, WRG-28, or Av for 45 min. The evaluation included measuring the second peak of each calcium wave and the rate of entry. Each bar within the figure represents the mean value derived from 77 to 91 cells for HCF, 31 to 49 cells for MRC5, and 43 to 94 cells for HSC-T6. In all the graphs, *, **, and *** denote p-values of <0.05, 0.01, and 0.001, respectively.
Cells cultured on a glass-bottom 96 well plate for 48 hours were treated with different compounds (10 μM) and Fura 2-AM (1 μM) simultaneously in a solution containing 145 mM NaCl, 2.8 mM KCl, 2 mM CaCl2, 2 mM MgCl2, 10 mM D-glucose, 10 mM HEPES, pH 7.4 for 40 minutes in the dark. […] All the images were analyzed by using IGOR Pro software. […]

Test [1] concerns BLM-induced pulmonary fibrosis. The test can be described thus: Bleomycin-induced lung fibrosis mouse model. It counts as in vivo. The settings on record: 14 days, Nintedanib 60 mg/kg/day, WRG-28 5 mg/kg/day, Av 5 mg/kg/day. From the text: A Bleomycin (BLM)-induced lung fibrosis mouse model was used, and the timelines of operation and drug delivery are depicted in FIG. 11A. […] The hydroxyproline content, serving as a marker of collagen deposition, was extracted from the right lobe and analyzed; the results are shown in FIG. 11C. FIG. 11D depicts histological analysis derived from the left lobe, quantifying the fibrotic area through staining with Masson's Trichrome and Picrosirius red, respectively.
8-to-10-week-old male WT (C57BL/6) mice received intratracheal instillation of bleomycin (bleocin; Nippon Kayaku) at the dose of 3 mg/kg diluted in PBS or PBS only (sham). To study fibrosis, lung samples were collected on day 21 for further analysis.
Lung function was assessed using the flexi Vent system (Scireq, Montreal, QC, Canada). Mice were tracheostomized and ventilated at a rate of 150 breaths/min, tidal volume of 10 ml/kg, and a positive end-expiratory pressure (PEEP) of 2-3 cmH2O. A deep inflation perturbation was used to estimate the inspiratory capacity (IC). Pressure-Volume loops were generated by constant increasing pressure, followed by regular decreasing pressure. Other lung function parameters like resistance, compliance, and elastance were measured by using SnapShot-150.
Levels of hydroxyproline in lung tissues were measured using the Hydroxyproline Colorimetric Assay kit (BioVision, Milpitas, CA, USA). Briefly, 10 mg of frozen right middle lobes homogenized in 100 μL of hydrochloric acid (HCl, 12 N), and hydrolyzed at 120° C. for 3 h. Then, 10 μL of individual samples were used to quantify the absorbance at 560 nm. Hydroxyproline content was presented in μg per lobe.
Mouse left lungs were fixed overnight in 4% paraformaldehyde (PFA), embedded in paraffin, and sectioned in 5 μm thickness for picrosirius red (Abcam, Cambridge, UK) and Masson's trichrome staining (Sigma Aldrich, MO, USA). Measurement of fibrotic area was quantified using ImageJ software (NIH, http://rsbweb.nih.gov/ij/).
The efficacy of WRG-28 and Av in treating pulmonary fibrosis was examined in vivo using a BLM-induced pulmonary fibrosis mouse model for evaluation. 50 μL of Bleomycin (BLM, 3 mg/kg) or PBS were introduced by intratracheal instillation on day 0 to induce fibrosis or serve as the control group, respectively. This was followed by the administration of various compounds for 14 days (Nintedanib: 60 mg/kg/day, WRG-28:5 mg/kg/day, Av: 5 mg/kg/day). Lung function evaluation was conducted on day 21 (FIG. 11A). Nintedanib, an FDA-approved drug for idiopathic pulmonary fibrosis (IPF) treatment, was used as the positive control. The results of the lung function evaluation are depicted in FIG. 11B. […] The degree of these changes can be reversed through treatment with Nintedanib, WRG-28 or Av. […] Histological analysis was conducted through staining techniques to quantify the fibrotic area.

Chain of CRAC channel (Q96D31 whole entry): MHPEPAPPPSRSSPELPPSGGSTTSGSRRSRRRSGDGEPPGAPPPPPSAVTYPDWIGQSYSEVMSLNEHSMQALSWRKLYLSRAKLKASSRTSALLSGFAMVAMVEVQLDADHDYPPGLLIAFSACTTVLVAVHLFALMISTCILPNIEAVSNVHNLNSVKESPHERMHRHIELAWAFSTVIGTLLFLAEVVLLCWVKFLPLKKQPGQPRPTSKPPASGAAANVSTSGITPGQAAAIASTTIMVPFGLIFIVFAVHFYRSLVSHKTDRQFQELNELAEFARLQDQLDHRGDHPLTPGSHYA

As to `CCNS(=O)(=O)c1ccc(COc2ccc3nc4ccc(=O)cc-4oc3c2)cc1` [WRG-28], at CRAC channel, the SOCE result is on record as “notably reduced”. Also, the “BLM-induced changes in lung function (capacity, compliance, resistance, elastance)” value in test [1] (day 21) is “reversed”. Moreover, in test [1] (left lobe), the “fibrotic area (Masson's trichrome and Picrosirius Red staining)” value is “effectively reduces”. Besides, the “hydroxyproline content (degree of fibrosis)” value in test [1] (right lobe) is listed as “inhibits the progression of fibrosis”.
